Source: patent publication US20210230616A1, “METHODS FOR ISOLATING CELLS WITHOUT THE USE OF TRANSGENIC MARKER SEQUENCES” (INSTITUTE OF GENETICS AND DEVELOPMENTAL BIOLOGY, CHINESE …, priority 2017, published 2021)

Experiments:
Assay type in all cases: in vivo
[1] = test system: mutant plant with heterozygous P165L substitution on ZmALS2; assay: Herbicide resistance of ZmALS-P165 edited corn plant
Description: To establish the co-editing system in corn, acetolactate synthase site corresponding TaALS-P173 was targeted to test the herbicide resistance. It has been reported single edited allele on ZmALS2 could confer plants herbicide resistance (Svitashev et al, 2016). So the binary vector targeting ZmALS-P165 was transformed to immature embryos (ZmALS-P165 site is conserved in both ZmALS1 and ZmALS2). Three independent mutants were obtained from the regenerated plants and their genotypes are same.

wild-type plants [2] = assay: Nicosulfuron selection medium, wild-type wheat plants
Description: 30 days later, twelve seedlings survived, and 9 of them had base mutations at the TaALS-S2 site. The efficiency of selecting the ALS-S2 site mutant plants using nicosulfuron selection medium was 75% (9/12).

wild-type plants [3] = assay: Nicosulfuron selection medium, wild-type rice plants; conditions: 0.0065 PPM Nicosulfuron
Method: The pH-nCas9-PBE-OsALS-S1/S2 binary vector was transformed into Agrobacterium strain AGL1 by electroporation. Agrobacterium-mediated transformation, tissue culture and regeneration in rice cultivar Zhonghua 11 were performed according to Shan et al. (Shan, Q. et al. Targeted genome modification of crop plants using a CRISPR-Cas system. Nat. Biotechnol. 31, 686-688 (2013)). Hygromycin selection (50 μg/ml) was used during tissue culture. (This experiment is a proof of concept, so the plants were selected with hygromycin first, then by nicosulfuron. The objective was to first obtain transgenic plants and then screen for herbicide resistance). […] Four seedlings survived after 14 days. DNA was extracted from the four seedlings. The ALS gene was amplified by PCR, sequenced to determine the mutant genotype.

SMILES | resistance of mutant corn plant to the herbicide [1] | survival of wild-type plants on selection medium (wild-type plants [2]) | survival of wild-type plants on selection medium (wild-type plants [3])
COC(=O)c1ccc(CNS(C)(=O)=O)cc1S(=O)(=O)NC(=O)Nc1nc(OC)cc(OC)n1 [Mesosulfuron-methyl] | showed resistance |  | 
COc1cc(OC)nc(NC(=O)NS(=O)(=O)c2ncccc2C(=O)N(C)C)n1 [Nicosulfuron] |  | unable to survive | cannot survive
